Experimental data: PMC7822874, “Chemoprotective antimalarials identified through quantitative high-throughput screening of Plasmodium blood and liver stage parasites” (Scientific Reports, 2021)
Where two headings read alike, the source gives them in different places.

What was measured:
[1] = system: P. berghei-ANKA-GFP-LucCON liver stage parasites in HepG2-A16-CD81EGFP cells; experiment: P. berghei liver stage Pb-Luc assay, Method 1 (UCSD, 1536-well); format: cell-based, Plasmodium berghei; conditions: Plasmodium berghei, 48 h, average of 2 wells, 1536-well plate; for activity at 1 µM: nominal 1 uM (10 mM stock), […] for 15 mM, 1.2 uM for 12 mM, 2 uM for 20 mM stock; for activity at 3 µM: nominal 3 uM (10 mM stock), 4.5 uM for 15 mM, 3.6 uM for 12 mM, 6 uM for 20 mM stock; as to all read-outs here: reference of the scale not given here
in vitro = conditions: human, HepG2-A16-CD81EGFP cells, uninfected
[2] = repeat 1, read-out: Pb-Luc signal, 1 uM, repeat 1
[3] = repeat 2, read-out: Pb-Luc signal, 1 uM, repeat 2
[4] = repeat 3, read-out: Pb-Luc signal, 1 uM, repeat 3
[5] = repeat 1, read-out: Pb-Luc signal, 3 uM, repeat 1
[6] = repeat 2, read-out: Pb-Luc signal, 3 uM, repeat 2
[7] = repeat 3, read-out: Pb-Luc signal, 3 uM, repeat 3
[8] = nominal 1 uM (10 mM stock), […] for 15 mM, 1.2 uM for 12 mM, 2 uM for 20 mM stock, average of 2 wells, repeat 2
[9] = nominal 3 uM (10 mM stock), 4.5 uM for 15 mM, 3.6 uM for 12 mM, 6 uM for 20 mM stock, average of 2 wells, repeat 2

## COc1ccc(OC)c(NC(=O)c2ccc3c(c2)N([S+](=O)([O-])c2ccccc2)CC3)c1 [NCGC00430430-01]
HepG2-A16-CD81EGFP cells
  HepG2 viability signal, 1 uM, repeat 2: 105.03%
  HepG2 viability signal, 3 uM, repeat 2: 97.67%
[1]; [2]
  activity at 1 µM: 111%
[1]; [3]
  activity at 1 µM: 108%
[1]; [4]
  activity at 1 µM: 91.3%
[1]; [5]
  activity at 3 µM: 102%
[1]; [6]
  activity at 3 µM: 79.3%
[1]; [7]
  activity at 3 µM: 99.8%
In vitro
  viability at 48 h, 1 µM: 112%
  viability at 48 h, 3 µM: 109%

## COc1ccc(Cl)cc1[S+](=O)([O-])N1CCC2(CCCNC2)C1 (stereo not drawn) [NCGC00431241-01]
HepG2-A16-CD81EGFP cells; [8]
  HepG2 viability signal, 1 uM, repeat 2: 104.68%
HepG2-A16-CD81EGFP cells; [9]
  HepG2 viability signal, 3 uM, repeat 2: 95.82%
[1]; [2]
  activity at 1 µM: 96.7%
[1]; [3]
  activity at 1 µM: 98.8%
[1]; [4]
  activity at 1 µM: 61.1%
[1]; [5]
  activity at 3 µM: 98.4%
[1]; [6]
  activity at 3 µM: 74.5%
[1]; [7]
  activity at 3 µM: 79.2%
In vitro
  viability at 48 h, 1 µM: 112%
  viability at 48 h, 3 µM: 108%

## CCOC(=O)C1(Cc2ccccc2C(F)(F)F)CCNCC1 [NCGC00433719-01]
HepG2-A16-CD81EGFP cells; [8]
  HepG2 viability signal, 1 uM, repeat 2: 106.17%
HepG2-A16-CD81EGFP cells; [9]
  HepG2 viability signal, 3 uM, repeat 2: 103.00%
[1]; [2]
  activity at 1 µM: 99.2%
[1]; [3]
  activity at 1 µM: 89.8%
[1]; [4]
  activity at 1 µM: 165%
[1]; [5]
  activity at 3 µM: 76.2%
[1]; [6]
  activity at 3 µM: 96.6%
[1]; [7]
  activity at 3 µM: 91.6%
In vitro
  viability at 48 h, 1 µM: 108%
  viability at 48 h, 3 µM: 105%

## COc1cccc(CN2CCC(Oc3ccc(-c4noc(C5CC5)n4)cc3)C2)c1 (stereo not drawn) [NCGC00440915-01]
HepG2-A16-CD81EGFP cells; [8]
  HepG2 viability signal, 1 uM, repeat 2: 97.97%
HepG2-A16-CD81EGFP cells; [9]
  HepG2 viability signal, 3 uM, repeat 2: 94.86%
[1]; [2]
  activity at 1 µM: 92.7%
[1]; [3]
  activity at 1 µM: 110%
[1]; [4]
  activity at 1 µM: 96%
[1]; [5]
  activity at 3 µM: 64.2%
[1]; [6]
  activity at 3 µM: 65.8%
[1]; [7]
  activity at 3 µM: 35.3%
In vitro
  viability at 48 h, 1 µM: 102%
  viability at 48 h, 3 µM: 96.6%

## Cc1ccc([S+](=O)([O-])N2CCC(OC3CCN(Cc4ccccc4)CC3)CC2)c(C)c1 [NCGC00444944-01]
HepG2-A16-CD81EGFP cells; [8]
  HepG2 viability signal, 1 uM, repeat 2: 105.13%
HepG2-A16-CD81EGFP cells; [9]
  HepG2 viability signal, 3 uM, repeat 2: 100.76%
[1]; [2]
  activity at 1 µM: 76.1%
[1]; [3]
  activity at 1 µM: 74%
[1]; [4]
  activity at 1 µM: 76.6%
[1]; [5]
  activity at 3 µM: 78.2%
[1]; [6]
  activity at 3 µM: 61.2%
[1]; [7]
  activity at 3 µM: 56.1%
In vitro
  viability at 48 h, 1 µM: 111%
  viability at 48 h, 3 µM: 107%

## COc1ccccc1NC(=O)Cn1cccc1-c1nc(-c2ccc(F)cc2)no1 [NCGC00445349-01]
HepG2-A16-CD81EGFP cells; [8]
  HepG2 viability signal, 1 uM, repeat 2: 104.40%
HepG2-A16-CD81EGFP cells; [9]
  HepG2 viability signal, 3 uM, repeat 2: 104.77%
[1]; [2]
  activity at 1 µM: 128%
[1]; [3]
  activity at 1 µM: 112%
[1]; [4]
  activity at 1 µM: 138%
[1]; [5]
  activity at 3 µM: 108%
[1]; [6]
  activity at 3 µM: 129%
[1]; [7]
  activity at 3 µM: 93.3%
In vitro
  viability at 48 h, 1 µM: 107%
  viability at 48 h, 3 µM: 107%

## COc1ccc(-c2noc(-c3cccn3CC(=O)Nc3ccc(C)cc3Cl)n2)cc1F [NCGC00445494-01]
HepG2-A16-CD81EGFP cells; [8]
  HepG2 viability signal, 1 uM, repeat 2: 100.81%
HepG2-A16-CD81EGFP cells; [9]
  HepG2 viability signal, 3 uM, repeat 2: 103.68%
[1]; [2]
  activity at 1 µM: 118%
[1]; [3]
  activity at 1 µM: 111%
[1]; [4]
  activity at 1 µM: 98.1%
[1]; [5]
  activity at 3 µM: 77.8%
[1]; [6]
  activity at 3 µM: 91.7%
[1]; [7]
  activity at 3 µM: 106%
In vitro
  viability at 48 h, 1 µM: 99.5%
  viability at 48 h, 3 µM: 104%

## COc1ccc(-c2noc(-c3cccn3CC(=O)Nc3cccc(Cl)c3C)n2)cc1F [NCGC00445510-01]
HepG2-A16-CD81EGFP cells; [8]
  HepG2 viability signal, 1 uM, repeat 2: 99.09%
HepG2-A16-CD81EGFP cells; [9]
  HepG2 viability signal, 3 uM, repeat 2: 100.27%
[1]; [2]
  activity at 1 µM: 103%
[1]; [3]
  activity at 1 µM: 114%
[1]; [4]
  activity at 1 µM: 132%
[1]; [5]
  activity at 3 µM: 102%
[1]; [6]
  activity at 3 µM: 91.7%
[1]; [7]
  activity at 3 µM: 124%
In vitro
  viability at 48 h, 1 µM: 104%
  viability at 48 h, 3 µM: 105%

## CN1c2cc(C(=O)Nc3ccc(C(F)(F)F)cc3)ccc2C(=O)N2CCCCC21 (stereo not drawn) [NCGC00452394-01]
HepG2-A16-CD81EGFP cells; [8]
  HepG2 viability signal, 1 uM, repeat 2: 105.25%
HepG2-A16-CD81EGFP cells; [9]
  HepG2 viability signal, 3 uM, repeat 2: 108.50%
[1]; [2]
  activity at 1 µM: 89.2%
[1]; [3]
  activity at 1 µM: 103%
[1]; [4]
  activity at 1 µM: 126%
[1]; [5]
  activity at 3 µM: 97.6%
[1]; [6]
  activity at 3 µM: 85.9%
[1]; [7]
  activity at 3 µM: 102%
In vitro
  viability at 48 h, 1 µM: 104%
  viability at 48 h, 3 µM: 110%
